Experimental data published in US9273057B2 (Bristol-Myers Squibb Company, priority 2012, dated 2016).

Target: CK2A1 (CK2α/β) (Homo sapiens, UniProt P68400)
Assay: CK2 kinase assay, CK2A1 (CK2α/β)
Assay type: biochemical
Settings: Table A; read-out: CK2A1 (CK2α/β) (IC50)

CK2A1 (CK2α/β), sequence (P68400 whole entry, species assumed): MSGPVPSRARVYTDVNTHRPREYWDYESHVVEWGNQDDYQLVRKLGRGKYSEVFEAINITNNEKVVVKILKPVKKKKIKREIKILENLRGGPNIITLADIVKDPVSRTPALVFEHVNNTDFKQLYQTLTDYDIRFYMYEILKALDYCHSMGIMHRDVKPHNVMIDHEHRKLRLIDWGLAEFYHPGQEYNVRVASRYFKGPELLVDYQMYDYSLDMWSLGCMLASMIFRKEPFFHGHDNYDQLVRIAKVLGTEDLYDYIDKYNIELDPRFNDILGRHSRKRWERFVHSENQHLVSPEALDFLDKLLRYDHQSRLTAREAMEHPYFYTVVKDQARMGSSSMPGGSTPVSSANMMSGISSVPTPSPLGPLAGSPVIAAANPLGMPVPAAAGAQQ
CK2A1 (CK2α/β), sequence (P67870 whole entry partner, species assumed): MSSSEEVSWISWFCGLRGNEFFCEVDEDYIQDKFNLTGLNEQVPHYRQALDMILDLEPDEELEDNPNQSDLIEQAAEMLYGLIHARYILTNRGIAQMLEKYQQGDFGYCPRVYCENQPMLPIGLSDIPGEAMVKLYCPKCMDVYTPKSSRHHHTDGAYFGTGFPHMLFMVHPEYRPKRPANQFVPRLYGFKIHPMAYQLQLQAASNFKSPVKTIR

| IC50 [nM] | Structure (SMILES) |
| --- | --- |
| 1.2 | CCNc1nc(Nc2cc(C#N)cc(N3CC[C@@H](N4CC(O)C4)[C@H](O)C3)c2Cl)nn2c(C#N)cnc12 (racemic) [Example 776, (+/−)-2-((2-chloro-5-cyano-3-((3R,4R)-3-hydroxy-4-(3-hydroxyazetidin-1-yl)piperidin-1-yl)phenyl)amino)-4-(ethylamino)imidazo[2,1-f][1,2,4]triazine-7-carbonitrile] |
| 0.51 | CC(=O)N[C@@H]1CCN(c2cc(C#N)cc(Nc3nc(NC4CC4)c4ncc(C#N)n4n3)c2Cl)C[C@H]1O (racemic) [Example 172, (+/−)-N-((3R,4R)-1-(2-chloro-5-cyano-3-((7-cyano-4-(cyclopropylamino)imidazo[2,1-f][1,2,4]triazin-2-yl)amino)phenyl)-3-hydroxypiperidin-4-yl)acetamide] |
